Source: patent US20250205264A1, “METHODS OF USING AVERMECTIN COMPOSITIONS FOR THE TREATMENT OF SPASTICITY AND DOSING REGIMENS” (priority 2022, published 2025)

Assays:
[1] = Excipient compatibility study at 40° C./75% RH (HPLC Assay/Related Substances); type: physicochemical; settings: for Chromatographic purity by HPLC (% area) / Total Impurities % (% adjusted area): 40° C./75% RH; for Total Impurities % (% adjusted area): excluding API impurities
Protocol: An excipient compatibility study was initiated with selected excipients ranging from oils to surfactants based on equilibrium solubility results (Table 2). […] After solutions were prepared using a hand-held homogenizer (Model IKAT10 Ultra-Turrax), each excipient sample was aliquoted in amber vials, approximately 10% water was added in each excipient aliquot, and bench scale gel stripe OET-004037 was also made and added in a separate set of aliquot samples at approximately 1:1 w/w.
All samples were stored at 40° C./75% relative humidity (RH) condition (Model: Lunaire environmental chamber) and tested by developmental reversed phase HPLC method for Assay/Related Substances at T=0, 2 weeks, and 1 month.

[2] = Pharmacokinetics of Ivermectin B1a in SD rat plasma after IV or oral administration; settings: 2 mg/kg, fasting, male
Protocol: Thirty-six male Sprague Dawley rats were randomly assigned into four groups, with nine male rats in each group. All animals in all groups are fasted overnight prior to the experimental date.
Blood samples were collected from 6 of 9 animals per group at 0.5, 1, 2, 3, 4, 6, 8, 24, 72, 120, 168 hours post-dose.

[3] = Ivermectin solubility determination in excipients
Protocol: The solubility assessments were performed by continually adding a known amount of the API into each individual excipient and letting the excipient reach solubility equilibrium via API saturation (visible solid observed). The experiments were conducted at ambient conditions (25° C.) and were left to mix on a stir plate at 500 RPM for at least 72 hours.

[4] = in Fractionated coconut oil, 10% water, T = 2 weeks
[5] = in Fractionated coconut oil, Control, T = 0
[6] = in Fractionated coconut oil, Control, T = 2 weeks
[7] = in Fractionated coconut oil, Gel Stripe (1:1 w/w), T = 2 weeks
[8] = in Labrasol ALF, 10% water, T = 1 months
[9] = in Labrasol ALF, 10% water, T = 2 weeks
[10] = in Labrasol ALF, Control, T = 0
[11] = in Labrasol ALF, Control, T = 1 months
[12] = in Labrasol ALF, Control, T = 2 weeks
[13] = in Labrasol ALF, Gel Stripe (1:1 w/w), T = 1 months
[14] = in Labrasol ALF, Gel Stripe (1:1 w/w), T = 2 weeks
[15] = in Maisine CC, 10% water, T = 1 months
[16] = in Maisine CC, 10% water, T = 2 weeks
[17] = in Maisine CC, Control, T = 1 months
[18] = in Maisine CC, Control, T = 2 weeks
[19] = in Maisine CC, Gel Stripe (1:1 w/w), T = 1 months
[20] = in Maisine CC, Gel Stripe (1:1 w/w), T = 2 weeks
[21] = in Masester E8120, 10% water, T = 1 months
[22] = in Masester E8120, 10% water, T = 2 weeks
[23] = in Masester E8120, Control, T = 0
[24] = in Masester E8120, Control, T = 1 months
[25] = in Masester E8120, Control, T = 2 weeks
[26] = in Masester E8120, Gel Stripe (1:1 w/w), T = 1 months
[27] = in Masester E8120, Gel Stripe (1:1 w/w), T = 2 weeks
[28] = in Oleic acid, 10% water, T = 2 weeks
[29] = in Oleic acid, Control, T = 2 weeks
[30] = in Oleic acid, Gel Stripe (1:1 w/w), T = 2 weeks
[31] = in PEG 400, 10% water, T = 2 weeks
[32] = in PEG 400, Control, T = 2 weeks
[33] = in PEG 400, Gel Stripe (1:1 w/w), T = 2 weeks
[34] = in Tween 80, 10% water, T = 1 months
[35] = in Tween 80, 10% water, T = 2 weeks
[36] = in Tween 80, Control, T = 1 months
[37] = in Tween 80, Control, T = 2 weeks
[38] = in Tween 80, Gel Stripe (1:1 w/w), T = 1 months
[39] = in Tween 80, Gel Stripe (1:1 w/w), T = 2 weeks
[40] = in Vitamin E TPGS, 10% water, T = 1 months
[41] = in Vitamin E TPGS, 10% water, T = 2 weeks
[42] = in Vitamin E TPGS, Control, T = 0
[43] = in Vitamin E TPGS, Control, T = 1 months
[44] = in Vitamin E TPGS, Control, T = 2 weeks
[45] = in Vitamin E TPGS, Gel Stripe (1:1 w/w), T = 1 months
[46] = in Vitamin E TPGS, Gel Stripe (1:1 w/w), T = 2 weeks

ivermectin
chemical compatibility with the API ([1]; PEG 400 as co-solvent): poor chemical compatibility | chemical compatibility with the API ([1]; Tween 80): less stability over time | chemical compatibility with the API ([1]; Vitamin E TPGS, compared with Tween 80 and Labrasol ALF): best chemical compatibility | Chromatographic purity by HPLC (% area) [1, 4]: 97.83 % area | Total Impurities % (% adjusted area) [1, 4]: <LOQ | Chromatographic purity by HPLC (% area) [1, 5]: 95.61 % area | Total Impurities % (% adjusted area) [1, 5]: <LOQ | Chromatographic purity by HPLC (% area) [1, 6]: 97.94 % area | Total Impurities % (% adjusted area) [1, 6]: <LOQ | Chromatographic purity by HPLC (% area) [1, 7]: 94.42 % area | Total Impurities % (% adjusted area) [1, 7]: 3.28 % adjusted area | Chromatographic purity by HPLC (% area) [1, 8]: 89.91 % area | Total Impurities % (% adjusted area) [1, 8]: 8.76 % adjusted area | Chromatographic purity by HPLC (% area) [1, 9]: 93.91 % area | Total Impurities % (% adjusted area) [1, 9]: 3.46 % adjusted area | Chromatographic purity by HPLC (% area) [1, 10]: 97.74 % area | Total Impurities % (% adjusted area) [1, 10]: <LOQ | Chromatographic purity by HPLC (% area) [1, 11]: 81.35 % area | Total Impurities % (% adjusted area) [1, 11]: 20.49 % adjusted area | Chromatographic purity by HPLC (% area) [1, 12]: 89.16 % area | Total Impurities % (% adjusted area) [1, 12]: 8.67 % adjusted area | Chromatographic purity by HPLC (% area) [1, 13]: 96.49 % area | Total Impurities % (% adjusted area) [1, 13]: 1.06 % adjusted area | Chromatographic purity by HPLC (% area) [1, 14]: 97.11 % area | Total Impurities % (% adjusted area) [1, 14]: 0.30 % adjusted area | Chromatographic purity by HPLC (% area) [1, 15]: 96.83 % area | Total Impurities % (% adjusted area) [1, 15]: 0.69 % adjusted area | Chromatographic purity by HPLC (% area) [1, 16]: 95.90 % area | Total Impurities % (% adjusted area) [1, 16]: 0.45 % adjusted area | Chromatographic purity by HPLC (% area) ([1]; in Maisine CC, Control, T = 0): 97.13 % area | Total Impurities % (% adjusted area) ([1]; in Maisine CC, Control, T = 0): 0.58 % adjusted area | Chromatographic purity by HPLC (% area) [1, 17]: 96.82 % area | Total Impurities % (% adjusted area) [1, 17]: 0.71 % adjusted area | Chromatographic purity by HPLC (% area) [1, 18]: 96.00 % area | Total Impurities % (% adjusted area) [1, 18]: 0.35 % adjusted area | Chromatographic purity by HPLC (% area) [1, 19]: 96.94 % area | Total Impurities % (% adjusted area) [1, 19]: 0.58 % adjusted area | Chromatographic purity by HPLC (% area) [1, 20]: 96.15 % area | Total Impurities % (% adjusted area) [1, 20]: 0.33 % adjusted area | Chromatographic purity by HPLC (% area) [1, 21]: 91.68 % area | Total Impurities % (% adjusted area) [1, 21]: 6.60 % adjusted area | Chromatographic purity by HPLC (% area) [1, 22]: 95.11 % area | Total Impurities % (% adjusted area) [1, 22]: 2.27 % adjusted area | Chromatographic purity by HPLC (% area) [1, 23]: 97.58 % area | Total Impurities % (% adjusted area) [1, 23]: 0.17 % adjusted area | Chromatographic purity by HPLC (% area) [1, 24]: 97.06 % area | Total Impurities % (% adjusted area) [1, 24]: 0.45 % adjusted area | Chromatographic purity by HPLC (% area) [1, 25]: 96.81 % area | Total Impurities % (% adjusted area) [1, 25]: 0.58 % adjusted area | Chromatographic purity by HPLC (% area) [1, 26]: 97.31 % area | Total Impurities % (% adjusted area) [1, 26]: 0.18 % adjusted area | Chromatographic purity by HPLC (% area) [1, 27]: 97.35 % area | Total Impurities % (% adjusted area) [1, 27]: 0.11 % adjusted area | Chromatographic purity by HPLC (% area) [1, 28]: 86.02 % area | Total Impurities % (% adjusted area) [1, 28]: 9.89 % adjusted area | Chromatographic purity by HPLC (% area) ([1]; in Oleic acid, Control, T = 0): 99.60 % area | Total Impurities % (% adjusted area) ([1]; in Oleic acid, Control, T = 0): <LOQ | Chromatographic purity by HPLC (% area) [1, 29]: 83.55 % area | Total Impurities % (% adjusted area) [1, 29]: 17.27 % adjusted area | Chromatographic purity by HPLC (% area) [1, 30]: 83.73 % area | Total Impurities % (% adjusted area) [1, 30]: 11.82 % adjusted area | Chromatographic purity by HPLC (% area) [1, 31]: 94.35 % area | Total Impurities % (% adjusted area) [1, 31]: 3.15 % adjusted area | Chromatographic purity by HPLC (% area) ([1]; in PEG 400, Control, T = 0): 97.58 % area | Total Impurities % (% adjusted area) ([1]; in PEG 400, Control, T = 0): 0.10 % adjusted area | Chromatographic purity by HPLC (% area) [1, 32]: 89.36 % area | Total Impurities % (% adjusted area) [1, 32]: 8.54 % adjusted area | Chromatographic purity by HPLC (% area) [1, 33]: 96.92 % area | Total Impurities % (% adjusted area) [1, 33]: 0.50 % adjusted area | Chromatographic purity by HPLC (% area) [1, 34]: 91.18 % area | Total Impurities % (% adjusted area) [1, 34]: 6.94 % adjusted area | Chromatographic purity by HPLC (% area) [1, 35]: 93.02 % area | Total Impurities % (% adjusted area) [1, 35]: 3.53 % adjusted area | Chromatographic purity by HPLC (% area) ([1]; in Tween 80, Control, T = 0): 97.53 % area | Total Impurities % (% adjusted area) ([1]; in Tween 80, Control, T = 0): 0.16 % adjusted area | Chromatographic purity by HPLC (% area) [1, 36]: 88.45 % area | Total Impurities % (% adjusted area) [1, 36]: 10.55 % adjusted area | Chromatographic purity by HPLC (% area) [1, 37]: 91.87 % area | Total Impurities % (% adjusted area) [1, 37]: 4.86 % adjusted area | Chromatographic purity by HPLC (% area) [1, 38]: 93.51 % area | Total Impurities % (% adjusted area) [1, 38]: 4.22 % adjusted area | Chromatographic purity by HPLC (% area) [1, 39]: 93.97 % area | Total Impurities % (% adjusted area) [1, 39]: 2.43 % adjusted area | Chromatographic purity by HPLC (% area) [1, 40]: 97.46 % area | Total Impurities % (% adjusted area) [1, 40]: <LOQ | Chromatographic purity by HPLC (% area) [1, 41]: 96.99 % area | Total Impurities % (% adjusted area) [1, 41]: 0.42 % adjusted area | Chromatographic purity by HPLC (% area) [1, 42]: 97.74 % area | Total Impurities % (% adjusted area) [1, 42]: <LOQ | Chromatographic purity by HPLC (% area) [1, 43]: 97.37 % area | Total Impurities % (% adjusted area) [1, 43]: 0.11 % adjusted area | Chromatographic purity by HPLC (% area) [1, 44]: 97.43 % area | Total Impurities % (% adjusted area) [1, 44]: <LOQ | Chromatographic purity by HPLC (% area) [1, 45]: 97.74 % area | Total Impurities % (% adjusted area) [1, 45]: <LOQ | Chromatographic purity by HPLC (% area) [1, 46]: 97.50 % area | Total Impurities % (% adjusted area) [1, 46]: <LOQ | chemical compatibility with the API ([1]; oily vehicles Maisine CC, fractionated coconut oil, and oleic acid): good chemical compatibility | AUC(0-t) [2]: 8259.31 ± 1032.95 ng·h/mL | AUC(0-∞) [2]: 8273.53 ng·h/mL | Cmax [2]: 1722.67 ng/mL | MRT(0-t) [2]: 10.58 h | MRT(0-∞) [2]: 10.81 h | T1/2 [2]: 14.82 ± 0.72 h | Tmax [2]: 0.50 h | Solubility ([3]; in Capryol 90, 25° C.): 150.92 mg/g | Solubility ([3]; in Fractionated Coconut oil, 25° C.): 16.55 mg/g | Solubility ([3]; in Glycerin, 25° C.): <0.1 mg/g | Solubility ([3]; in Kolliphor EL, 25° C.): 95.85 mg/g | Solubility ([3]; in Labrafil M 2125 CS, 25° C.): 35.32 mg/g | Solubility ([3]; in Labrasol ALF, 25° C.): 126.36 mg/g | Solubility ([3]; in LauroglycolTM FCC, 25° C.): 71.96 mg/g | Solubility ([3]; in Maisine CC, 25° C.): 60.17 mg/g | Solubility ([3]; in Masester E8120, 25° C.): 164.06 mg/g | Solubility ([3]; in Medium Chain Triglyceride, 25° C.): 16.49 mg/g | Solubility ([3]; in Oleic acid, 25° C.): 48.58 mg/g | Solubility ([3]; in Olive oil, 25° C.): 4.71 mg/g | Solubility ([3]; in PEG 400, 25° C.): 112.92 mg/g | Solubility ([3]; in Propylene glycol, 25° C.): 25.61 mg/g | Solubility ([3]; in Soybean oil, 25° C.): 6.72 mg/g | Solubility ([3]; in Span 20, 25° C.): 97.66 mg/g | Solubility ([3]; in Span 80, 25° C.): 54.04 mg/g | Solubility ([3]; in Triacetin, 25° C.): 58.75 mg/g | Solubility ([3]; in Tween 80, 25° C.): 88.26 mg/g | Solubility ([3]; in Vitamin E TPGS, table title 25° C., text b171: conducted at 40° C.): 82.98 mg/g
